For seven compounds, GI50 and TGI results are on record in PubChem BioAssay (NCI).

Where “and” joins values, the source holds several entries; their conditions need not be identical. Equal values may be shown once.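 How tested: cells in 96-well plates exposed to compound for 48 hours at five concentrations. GI50 is the concentration that inhibits growth by half. At the TGI there is no net growth.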

Test systems include SK-MEL-2 melanoma; A549 NSCLC; HS 578T breast; DU-145 prostate; SF-268 CNS; RPMI-8226 leukemia; SK-MEL-28 melanoma; HOP-62 NSCLC; HL-60(TB) leukemia; NCI-H226 lung.
Common to all, as to experiment: growth of human tumour cells (NCI), 48 h

Consider `NCCCCC(NC(=O)C(N)CCCN=C(N)N)C(=O)NC(CCCCN)C(=O)NC(CCCN=C(N)N)C(=O)NC(CCCN=C(N)N)C(=O)NC(CCC(N)=O)C(=O)NC(CCCN=C(N)N)C(=O)NC(CCCN=C(N)N)C(=O)NC(CCCN=C(N)N)C(=O)NCC(=O)NCC(=O)O` (stereo not given), for which the GI50 in the experiment on SK-MEL-2 melanoma, in the experiment with A549 NSCLC, with HS 578T breast, with DU-145 prostate, in the experiment on SF-268 CNS and with RPMI-8226 leukemia was more than 50 µM each time. The GI50 in the experiment on SK-MEL-28 melanoma, in the experiment on HOP-62 NSCLC, in the experiment with HL-60(TB) leukemia and in the experiment on NCI-H226 lung was more than 50 µM throughout. Moreover, the TGI in the experiment with SK-MEL-2 melanoma, in the experiment with A549 NSCLC, with HS 578T breast, in the experiment with DU-145 prostate, in the experiment on SF-268 CNS and in the experiment on RPMI-8226 leukemia was more than 50 µM in each case. For the same compound, the TGI in the experiment on SK-MEL-28 melanoma, in the experiment on HOP-62 NSCLC, in the experiment with HL-60(TB) leukemia and in the experiment on NCI-H226 lung was more than 50 µM each time.

`COc1cc2nc(Nc3cccc(Cl)c3)nc(N)c2cc1OC`: the GI50 is 8.28 µM in the experiment on SK-MEL-2 melanoma; 9.89 µM with A549 NSCLC; 6.05 µM in the experiment with HS 578T breast; 6.74 µM in the experiment on DU-145 prostate; 6.41 µM in the experiment on SF-268 CNS; 2.11 µM in the experiment on RPMI-8226 leukemia. For the same compound, the GI50 in the experiment with SK-MEL-28 melanoma was 1.93 µM; in the experiment with HOP-62 NSCLC, 5.81 µM; in the experiment on HL-60(TB) leukemia, 10.7 µM; with NCI-H226 lung, 16 µM. The TGI in the experiment on SK-MEL-2 melanoma is 28.5 µM; in the experiment with A549 NSCLC, 27.3 µM; in the experiment with HS 578T breast, 31.6 µM; with DU-145 prostate, 22.8 µM; with SF-268 CNS, 19.9 µM; with RPMI-8226 leukemia, 5.34 µM. The TGI in the experiment with SK-MEL-28 melanoma was 3.78 µM; in the experiment on HOP-62 NSCLC, 18.3 µM; in the experiment on HL-60(TB) leukemia, 39.4 µM; in the experiment with NCI-H226 lung, 29.5 µM.

Regarding `CCSC[C@@H]1C[C@](O)(c2ccc(Cl)cc2)[C@@H](c2ccc(Cl)cc2)O1`, the GI50 in the experiment on SK-MEL-2 melanoma was 16 µM; in the experiment on A549 NSCLC, 17.3 µM; in the experiment on HS 578T breast it was 18 µM; with DU-145 prostate, 15 µM; in the experiment on SF-268 CNS it was 18.5 µM; in the experiment with RPMI-8226 leukemia it was 20.8 µM. For the same compound, the GI50 in the experiment on SK-MEL-28 melanoma is 16.2 µM; in the experiment with HOP-62 NSCLC it was 16.7 µM; in the experiment with HL-60(TB) leukemia it was 15.2 µM; in the experiment with NCI-H226 lung, 17.8 µM. The TGI is 35 µM in the experiment on SK-MEL-2 melanoma; 33.2 µM in the experiment on A549 NSCLC; 39.6 µM in the experiment on HS 578T breast; 30 µM in the experiment with DU-145 prostate; 35.7 µM with SF-268 CNS; 51.2 µM with RPMI-8226 leukemia. Besides, the TGI was found to be 32.8 µM in the experiment with SK-MEL-28 melanoma, 30.7 µM with HOP-62 NSCLC, 36 µM with HL-60(TB) leukemia and 37.3 µM with NCI-H226 lung.

As to `CCC1=C(c2ccc(OC)cc2)C(C)(C)Oc2c1ccc(O)c2CN1CCCC1`, the GI50 with SK-MEL-2 melanoma is 1.98 µM; in the experiment with A549 NSCLC, 3.63 µM; in the experiment with HS 578T breast, 3.44 µM; with DU-145 prostate, 3.77 µM; in the experiment on SF-268 CNS, 8.8 µM; in the experiment on RPMI-8226 leukemia, 0.721 µM. Moreover, the GI50 was 1.7 µM in the experiment on SK-MEL-28 melanoma, 1.99 µM in the experiment on HOP-62 NSCLC, 0.871 µM in the experiment with HL-60(TB) leukemia and 2.45 µM in the experiment with NCI-H226 lung. Moreover, the TGI is 3.7 µM with SK-MEL-2 melanoma; 26.8 µM in the experiment with A549 NSCLC; 35.1 µM in the experiment on HS 578T breast; more than 100 µM with DU-145 prostate; more than 100 µM in the experiment with SF-268 CNS; 2.45 µM in the experiment on RPMI-8226 leukemia. Besides, the TGI is 3.32 µM in the experiment with SK-MEL-28 melanoma, 7.03 µM in the experiment on HOP-62 NSCLC, 3.12 µM with HL-60(TB) leukemia and 14.7 µM with NCI-H226 lung.

Consider `Cc1c(Cn2c(C)nc3c(C(=O)O)cc(N4CCOCC4)cc32)cccc1C(F)(F)F`, for which the GI50 with SK-MEL-2 melanoma was 96.9 µM; with A549 NSCLC, 54.3 µM; in the experiment on HS 578T breast, 50.5 µM; with DU-145 prostate it was more than 92.9 µM; in the experiment on SF-268 CNS it was 56 µM; in the experiment on RPMI-8226 leukemia, 64.8 µM. The GI50 was more than 100 µM in the experiment with SK-MEL-28 melanoma, 37.5 µM with HOP-62 NSCLC, 72.9 µM with HL-60(TB) leukemia and 67.2 µM in the experiment with NCI-H226 lung. In addition, the TGI in the experiment on SK-MEL-2 melanoma, in the experiment with A549 NSCLC, in the experiment on HS 578T breast, in the experiment with DU-145 prostate, in the experiment on SF-268 CNS and in the experiment with RPMI-8226 leukemia was more than 100 µM each time. Besides, the TGI in the experiment on SK-MEL-28 melanoma, with HOP-62 NSCLC, with HL-60(TB) leukemia and in the experiment with NCI-H226 lung was more than 100 µM in each case.

Regarding `Cc1c(CN2CCN(C(=O)[C@H](C)O)CC2)sc2c(N3CCOCC3)nc(-c3cnc(N)nc3)nc12`, the GI50 was 0.513 µM and 0.198 µM with SK-MEL-2 melanoma; 0.439 µM and 0.207 µM in the experiment on A549 NSCLC; 0.0539 µM and 0.0446 µM in the experiment on HS 578T breast; 0.424 µM and 0.244 µM in the experiment on DU-145 prostate; 0.328 µM and 0.204 µM with SF-268 CNS; 0.267 µM and 0.206 µM with RPMI-8226 leukemia. For the same compound, the GI50 was 0.247 µM and 0.138 µM in the experiment with SK-MEL-28 melanoma; 0.548 µM and 0.182 µM with HOP-62 NSCLC; 0.146 µM and 0.192 µM in the experiment on HL-60(TB) leukemia; 0.345 µM and 0.159 µM in the experiment on NCI-H226 lung. The TGI in the experiment with SK-MEL-2 melanoma is 4.72 µM and 1.8 µM; in the experiment with A549 NSCLC, 9.75 µM and 7.57 µM; in the experiment with HS 578T breast it was 0.541 µM and 0.352 µM; in the experiment on DU-145 prostate, more than 100 µM; with SF-268 CNS it was > 10 µM and 27.1 µM; in the experiment with RPMI-8226 leukemia, > 8.66 µM and 11.8 µM. In addition, the TGI was 5.43 µM and 0.708 µM in the experiment with SK-MEL-28 melanoma; > 7.07 µM and 3.85 µM in the experiment on HOP-62 NSCLC; > 10 µM and 6.81 µM with HL-60(TB) leukemia; 6.15 µM in the experiment with NCI-H226 lung.

Take `CC1=C(C#N)C23C(=O)N(c4ccccc4)C(=O)C2=C(O)C=CC3(O)N1Cc1ccc(Cl)cc1Cl` (stereo not given): the GI50 with SK-MEL-2 melanoma is 2.98 µM; in the experiment with A549 NSCLC, 12.2 µM; in the experiment with HS 578T breast, 3.13 µM; in the experiment with DU-145 prostate, 2.7 µM; in the experiment on SF-268 CNS, 3.74 µM; in the experiment with RPMI-8226 leukemia, 1.63 µM. Further, the GI50 with SK-MEL-28 melanoma was 1.53 µM; in the experiment with HOP-62 NSCLC, 4.31 µM; in the experiment on HL-60(TB) leukemia, 3.18 µM; with NCI-H226 lung, 2.54 µM. In addition, the TGI in the experiment on SK-MEL-2 melanoma came to 11.5 µM; in the experiment with A549 NSCLC it was 28.5 µM; in the experiment with HS 578T breast it was 11.6 µM; in the experiment on DU-145 prostate, 11.6 µM; with SF-268 CNS, 16.4 µM; with RPMI-8226 leukemia it was 4.22 µM. In addition, the TGI in the experiment with SK-MEL-28 melanoma was 3.4 µM; with HOP-62 NSCLC, 15.7 µM; in the experiment on HL-60(TB) leukemia it was 6.82 µM; in the experiment on NCI-H226 lung it was 9.96 µM.
